PMC4885601 (Journal of Medicinal Chemistry, 2016)
Read-outs that look alike come from different tables or passages of the source.

Key:
[1] = biological target: κ-opioid receptor (KOR) (Homo sapiens, UniProt P41145); test: Stimulation of [35S]GTPγS binding at KOR; format: biochemical; settings: percent maximal stimulation relative to U69,593 at 10 μM
[2] = biological target: T1, δ-opioid receptor (DOR) (Rattus norvegicus, UniProt P33533); test: Stimulation of [35S]GTPγS binding at DOR; format: biochemical; settings: percent maximal stimulation relative to DPDPE at 10 μM
[3] = test system: mouse; test: In vivo warm water tail withdrawal; settings: ip, up to 10 mg/kg
[4] = test system: mouse; settings: WWTW assay; cited from earlier work
[5] = biological target: T1, δ-opioid receptor (DOR); settings: cited from earlier work

T1 sequence (P33533 whole entry): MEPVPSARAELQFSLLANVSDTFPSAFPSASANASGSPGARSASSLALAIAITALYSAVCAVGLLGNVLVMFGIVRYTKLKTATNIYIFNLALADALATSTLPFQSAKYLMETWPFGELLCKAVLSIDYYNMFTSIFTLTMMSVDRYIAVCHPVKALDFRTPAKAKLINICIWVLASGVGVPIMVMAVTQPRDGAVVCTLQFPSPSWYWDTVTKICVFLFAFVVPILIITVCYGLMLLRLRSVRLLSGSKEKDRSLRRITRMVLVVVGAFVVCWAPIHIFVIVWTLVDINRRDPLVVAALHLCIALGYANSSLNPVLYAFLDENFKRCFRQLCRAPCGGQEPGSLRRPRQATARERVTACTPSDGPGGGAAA
Chain of κ-opioid receptor (KOR) (P41145 whole entry): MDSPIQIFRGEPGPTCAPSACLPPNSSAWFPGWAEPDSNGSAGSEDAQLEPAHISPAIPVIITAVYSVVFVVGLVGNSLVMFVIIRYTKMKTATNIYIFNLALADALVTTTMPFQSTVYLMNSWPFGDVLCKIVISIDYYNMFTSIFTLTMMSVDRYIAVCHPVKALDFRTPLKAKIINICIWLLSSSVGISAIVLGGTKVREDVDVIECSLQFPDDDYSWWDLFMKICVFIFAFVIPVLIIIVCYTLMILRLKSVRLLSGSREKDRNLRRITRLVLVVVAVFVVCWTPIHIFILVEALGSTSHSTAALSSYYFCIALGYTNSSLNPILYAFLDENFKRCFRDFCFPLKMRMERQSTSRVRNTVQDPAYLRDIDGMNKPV

Cc1cc(O)cc(C)c1C[C@H](N)C(=O)N[C@@H]1CCN(C(=O)C2CCC2)c2ccc(Cc3ccccc3)cc21 [4g, (S)-2-Amino-N-((R)-6-benzyl-1-(cyclobutanecarbonyl)-1,2,3,4-tetrahydroquinolin-4-yl)-3-(4-hydroxy-2,6-dimethylphenyl)propanamide]
% stimulation KOR [1]: no efficacy

Cc1cc(O)cc(C)c1C[C@H](N)C(=O)N[C@@H]1CCN(C(=O)c2ccccc2)c2ccc(Cc3ccccc3)cc21 [4j, (S)-2-Amino-N-((R)-1-benzoyl-6-benzyl-1,2,3,4-tetrahydroquinolin-4-yl)-3-(4-hydroxy-2,6-dimethylphenyl)propanamide]
% stimulation DOR [2]: no stimulation

Cc1cc(O)cc(C)c1C[C@H](N)C(=O)N[C@@H]1CCN(C(=O)C2CC2)c2ccc(Cc3ccccc3)cc21 [4f, (S)-2-Amino-N-((R)-6-benzyl-1-(cyclopropanecarbonyl)-1,2,3,4-tetrahydroquinolin-4-yl)-3-(4-hydroxy-2,6-dimethylphenyl)propanamide]
antinociception in the WWTW assay [3]: partial antinociception

CC(=O)N1CC[C@@H](NC(=O)[C@@H](N)Cc2c(C)cc(O)cc2C)c2cc(Cc3ccc4ccccc4c3)ccc21 [15b, (S)-N-((R)-1-Acetyl-6-(naphthalen-2-ylmethyl)-1,2,3,4-tetrahydroquinolin-4-yl)-2-amino-3-(4-hydroxy-2,6-dimethylphenyl)propanamide]
duration of in vivo antinociception [4]: greater than 3 h

CC(=O)N1CC[C@@H](NC(=O)[C@@H](N)Cc2c(C)cc(O)cc2C)c2cc(Cc3ccccc3)ccc21 [4b, (S)-N-((R)-1-Acetyl-6-benzyl-1,2,3,4-tetrahydroquinolin-4-yl)-2-amino-3-(4-hydroxy-2,6-dimethylphenyl)propanamide]
% stimulation DOR [5]: 26%

COC(=O)N1CC[C@@H](NC(=O)[C@@H](N)Cc2c(C)cc(O)cc2C)c2cc(Cc3ccccc3)ccc21 [4h, Methyl (R)-4-((S)-2-Amino-3-(4-hydroxy-2,6-dimethylphenyl)propanamido)-6-benzyl-3,4-dihydroquinoline-1(2H)-carboxylate]
antinociception in the WWTW assay [3]: full in vivo antinociception
